According to patent US8592403B2, “Diazepine and diazocane compounds as MC4 agonists” (Pfizer Limited, priority 2008, dated 2013):

Assays:
MC4 receptor (MC4R) = biological target: T1, MC4 receptor (MC4R) (Homo sapiens, UniProt P32245); assay: Nle4, D-Phe7-α-MSH inhibition at the MC4 receptor (competition binding, SPA, CHO-CRE MC4R membranes)
T1 construct: expressed in transfected cells; host or cells: CHO-CRE MC4R cells (membranes)
Method in brief: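 Competition binding by SPA used CHO-CRE MC4R membranes on WGA beads (0.15 ug membrane/well) with 0.06 nM [125I] Nle4, D-Phe7-α-MSH and 11 half-log competitor concentrations in duplicate. Buffer was 25 mM HEPES pH 7 with MgCl2, CaCl2, Pluronic F68 and protease inhibitors; incubation was 12 hours at room temperature. Non-specific binding was set with 100 nM SHU9119, and Ki was calculated.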

[1] = In vitro metabolism rate determination, human liver microsome (HLM) assay; assay type: in vitro ADME; settings: human, liver microsomes, read-out: HLM: Clint, app
Method in brief: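 Human liver microsomes at 0.5 nmol cytochrome P450/ml with 1 μM substrate, pre-warmed 5 min at 37° C, reaction started with NADP; samples taken 0–60 min and terminated. Substrate loss measured; first-order rate constant from log-linear regression converted to half-life or Clint (μl/min/mg protein).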

T1 sequence (P32245 whole entry): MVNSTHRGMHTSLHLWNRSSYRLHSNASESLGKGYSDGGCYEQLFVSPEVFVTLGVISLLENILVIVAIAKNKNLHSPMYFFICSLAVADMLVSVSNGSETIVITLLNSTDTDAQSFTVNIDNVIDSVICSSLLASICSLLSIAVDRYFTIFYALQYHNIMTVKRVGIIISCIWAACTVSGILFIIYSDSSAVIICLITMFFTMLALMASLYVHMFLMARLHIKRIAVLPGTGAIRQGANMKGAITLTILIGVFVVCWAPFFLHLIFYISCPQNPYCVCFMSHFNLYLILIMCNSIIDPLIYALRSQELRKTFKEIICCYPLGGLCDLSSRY

Row | Compound | Ki (MC4 receptor (MC4R)) [µM] | microsomal CLint at 1 μM [1] [µL/min/mg]
1 | CNC(=O)N1CCN(C(=O)[C@@H]2CN(c3cccnn3)C[C@H]2c2ccc(F)cc2F)CCCC1c1ccccc1 (mixture of isomers) [Example 73] | 0.225 | 53
2 | CS(=O)(=O)N1CCN(C(=O)[C@@H]2CN(c3ccc(=O)[nH]n3)C[C@H]2c2ccc(F)cc2F)CCCC1c1ccc(Cl)cc1 (mixture of isomers) [Example 79] | 0.107 | 22
3 | CC(=O)N1CCN(C(=O)[C@@H]2CN(c3cccnn3)C[C@H]2c2ccc(F)cc2F)CCCC1c1ccccc1 (mixture of isomers) [Example 103] | 0.316 | 102
4 | CC(=O)N1CCN(C(=O)[C@@H]2CN(c3ccc4nncn4n3)C[C@H]2c2ccc(Cl)cn2)CCC[C@H]1c1ccc(Cl)cc1 [Example 6, 6-[(3S,4S)-3-{[4-acetyl-5S-(4-chlorophenyl)-1,4-diazocan-1-yl]carbonyl}-4-(5-chloropyridin-2-yl)pyrrolidin-1-yl][1,2,4]triazolo[4,3-b]pyridazine] | 0.0284 | 13.5
5 | CC(C)(C)N1C[C@@H](C(=O)N2CCC[C@@H](c3ccc(Cl)cc3)N(C(=O)C3CCC3)CC2)[C@H](c2ccc(F)cc2F)C1 [Example 14] | 0.378 | 82.8
6 | CC(C)(C)C(=O)N1CCN(C(=O)[C@@H]2CN(C(C)(C)C)C[C@H]2c2ccc(F)cc2F)CCC[C@H]1c1ccc(Cl)cc1 [Example 15] | 0.144 | 57.4
7 | CC(C)C(=O)N1CCN(C(=O)[C@@H]2CN(C(C)(C)C)C[C@H]2c2ccc(Cl)cn2)CCC[C@H]1c1ccc(Cl)cc1 [Example 20, 1-{[(3S,4S)-1-tert-butyl-4-(5-chloropyridin-2-yl)pyrrolidin-3-yl]carbonyl}-5S-(4-chlorophenyl)-4-isobutyryl-1,4-diazocane] | 0.0686 | 18.1
8 | COC(=O)N1CCN(C(=O)[C@@H]2CN(c3ccc(=O)n(C)n3)C[C@H]2c2ccc(F)cc2F)CCC[C@@H]1c1ccc(Cl)cc1 [Example 56] | 0.0711 | 20.5
9 | COC(=O)N1CCN(C(=O)[C@@H]2CN(c3ccc(=O)n(C)n3)C[C@H]2c2ccc(F)cc2F)CCC[C@H]1c1ccc(Cl)cc1 [Example 66, methyl (8S-4-chlorophenyl)-4-{[(3S,4R)-4-(2,4-difluorophenyl)-1-(1-methyl-6-oxo-1,6-dihydropyridazin-3-yl)pyrrolidin-3-yl]carbonyl}-1,4-diazocane-1-carboxylate] | 0.0711 | 20.5
10 | COc1ccc([C@@H]2CN(c3ccc(C#N)nn3)C[C@H]2C(=O)N2CCC[C@@H](c3ccc(Cl)cc3)N(C(C)=O)CC2)c(F)c1 [Example 67] | 0.0589 | 21.4
11 | COc1ccc([C@@H]2CN(c3ccc(=O)[nH]n3)C[C@H]2C(=O)N2CCC[C@@H](c3ccc(Cl)cc3)N(C(C)=O)CC2)c(F)c1 [Example 68, 6-[(3S,4R)-3-{[4-acetyl-5S-(4-chlorophenyl)-1,4-diazocan-1-yl]carbonyl}-4-(2-fluoro-4-methoxyphenyl)pyrrolidin-1-yl]pyridazin-3(2H)-one] | 0.0217 | 13.7
12 | COc1ccc([C@@H]2CN(C(C)(C)C)C[C@H]2C(=O)N2CCC[C@@H](c3ccc(Cl)cc3)N(C(C)=O)CC2)c(F)c1 [Example 70] | 0.686 | 28.3
13 | CS(=O)(=O)N1CCN(C(=O)C2CN(c3ccc(=O)[nH]n3)CC2c2ccc(F)cc2F)CCCC1c1ccc(F)cc1 (stereo not shown) [Example 78] | 0.303 | 54
14 | COC(=O)N1CCN(C(=O)[C@@H]2CN(c3ccc(=O)n(C)n3)C[C@H]2c2ccc(OC)cc2F)CCC[C@@H]1c1ccc(Cl)cc1 [Example 119, methyl 8R-(4-chlorophenyl)-4-{[(3S,4R)-4-(2-fluoro-4-methoxyphenyl)-1-(1-methyl-6-oxo-1,6-dihydropyridazin-3-yl)pyrrolidin-3-yl]carbonyl}-1,4-diazocane-1-carboxylate] | 0.0223 | 18.8

Further molecules by falling Ki (MC4 receptor (MC4R)), results first:

Row | Ki (MC4 receptor (MC4R)) [µM] | microsomal CLint at 1 μM [1] [µL/min/mg] | Compound
15 | 0.383 | 46.9 | COC(=O)N1CCN(C(=O)[C@@H]2CN(C(C)(C)C)C[C@H]2c2ccc(OC)cc2F)CCCC1c1ccc(Cl)cc1 (stereo partly shown) [Example 91]
16 | 0.344 | 11 | CS(=O)(=O)N1CCN(C(=O)[C@@H]2CN(c3ccc(C#N)nn3)C[C@H]2c2ccc(F)cc2F)CCCC1c1ccc(Cl)cc1 (mixture of isomers) [Example 76]
17 | 0.3 | 22.1 | CCC(=O)N1CCN(C(=O)[C@@H]2CN(C(C)(C)C)C[C@H]2c2ccc(F)cc2F)CCC[C@H]1c1ccc(Cl)cc1 [Example 10]
18 | 0.2 | 23.6 | CC(C)C(=O)N1CCN(C(=O)[C@@H]2CN(C(C)(C)C)C[C@H]2c2ccc(F)cc2F)CCC[C@H]1c1ccc(Cl)cc1 [Example 11]
19 | 0.0779 | 143 | CCCC(=O)N1CCN(C(=O)[C@@H]2CN(c3cccnn3)C[C@H]2c2ccc(F)cc2F)CCCC1c1ccccc1 (mixture of isomers) [Example 101]
20 | 0.0714 | 13 | CC(=O)N1CCN(C(=O)[C@@H]2CN(c3ccc(C#N)nn3)C[C@H]2c2ccc(Cl)cn2)CCC[C@H]1c1ccc(Cl)cc1 [Example 72]
21 | 0.0336 | 35.1 | COc1ccc([C@@H]2CN(c3ccc(=O)n(C)n3)C[C@H]2C(=O)N2CCCC(c3ccc(Cl)cc3)N(S(C)(=O)=O)CC2)c(F)c1 (single isomer, unassigned) [Example 117]
22 | 0.0247 | 23.2 | COC(=O)N1CCN(C(=O)[C@@H]2CN(c3ccc(=O)n(C)n3)C[C@H]2c2ccc(OC)cc2F)CCC[C@H]1c1ccc(Cl)cc1 [Example 118]
23 | 0.012 | 11.7 | COC(=O)N1CCN(C(=O)[C@@H]2CN(c3ccc(=O)[nH]n3)C[C@H]2c2ccc(OC)cc2F)CCC[C@@H]1c1ccc(Cl)cc1 [Example 90, methyl 8R-(4-chlorophenyl)-4-{[(3S,4R)-4-(2-fluoro-4-methoxyphenyl)-1-(6-oxo-1,6-dihydropyridazin-3-yl)pyrrolidin-3-yl]carbonyl}-1,4-diazocane-1-carboxylate]
